{"source": "ChEMBL document CHEMBL5625167", "about": "“In vitro bioevaluation and docking study of dihydrosphingosine and ethambutol analogues against sensitive and multi-drug resistant Mycobacterium tuberculosis” (Eur J Med Chem, 2023)", "format_in_all_cases": "functional", "key": {"[1]": {"system": "Mycobacterium tuberculosis", "experiment": "Antimycobacterial activity against isoniazid, rifampicin, ethambutol, streptomycin and levofloxacin resistant Mycobacterium tuberculosis clinical isolate 1576 incubated for 7 days by resazurin dye based colorimetric method analysis", "conditions": "Mycobacterium tuberculosis, 1576, 168 h; time 7 day"}, "[2]": {"system": "Mycobacterium tuberculosis", "experiment": "Additive antimycobacterial activity against pre-extensively drug resistant Mycobacterium tuberculosis 1576 assessed as fractional inhibitory concentration index incubated for 48 hrs by micro dilution checkerboard assay in presence of rifampicin"}, "[3]": {"system": "Mycobacterium tuberculosis", "experiment": "Additive antimycobacterial activity against pre-extensively drug resistant Mycobacterium tuberculosis 1576 incubated for 7 days by resazurin dye based two-dimensional micro dilution checkerboard assay in presence of isoniazid", "conditions": "time 7 day"}, "[4]": {"system": "Mycobacterium tuberculosis", "experiment": "Additive antimycobacterial activity against pre-extensively drug resistant Mycobacterium tuberculosis 1576 incubated for 7 days by resazurin dye based two-dimensional micro dilution checkerboard assay in presence of ethambutol", "conditions": "time 7 day"}, "[5]": {"system": "Mycobacterium tuberculosis", "experiment": "Additive antimycobacterial activity against pre-extensively drug resistant Mycobacterium tuberculosis 1576 incubated for 7 days by resazurin dye based two-dimensional micro dilution checkerboard assay in presence of levofloxacin", "conditions": "time 7 day"}, "[6]": {"system": "Mycobacterium tuberculosis", "experiment": "Additive antimycobacterial activity against pre-extensively drug resistant Mycobacterium tuberculosis 1576 incubated for 7 days by resazurin dye based two-dimensional micro dilution checkerboard assay in presence of amikacin", "conditions": "time 7 day"}, "[7]": {"system": "Mycobacterium tuberculosis", "experiment": "Antimycobacterial activity against pre-extensively drug resistant Mycobacterium tuberculosis 1576 incubated for 7 days by resazurin dye based two-dimensional micro dilution checkerboard assay in presence of rifampicin", "conditions": "time 7 day"}, "[8]": {"system": "Mycobacterium tuberculosis", "experiment": "Additive antimycobacterial activity against pre-extensively drug resistant Mycobacterium tuberculosis 1576 assessed as fractional inhibitory concentration index incubated for 7 days by resazurin dye based two-dimensional micro dilution checkerboard assay in presence of levofloxacin", "conditions": "time 7 day"}, "[9]": {"system": "Mycobacterium tuberculosis", "experiment": "Additive antimycobacterial activity against pre-extensively drug resistant Mycobacterium tuberculosis 1576 assessed as fractional inhibitory concentration index incubated for 7 days by resazurin dye based two-dimensional micro dilution checkerboard assay in presence of ethambutol", "conditions": "time 7 day"}, "[10]": {"system": "Mycobacterium tuberculosis", "experiment": "Additive antimycobacterial activity against pre-extensively drug resistant Mycobacterium tuberculosis 1576 assessed as fractional inhibitory concentration index incubated for 7 days by resazurin dye based two-dimensional micro dilution checkerboard assay in presence of amikacin", "conditions": "time 7 day"}, "[11]": {"system": "Mycobacterium tuberculosis", "experiment": "Additive antimycobacterial activity against pre-extensively drug resistant Mycobacterium tuberculosis 1576 assessed as fractional inhibitory concentration index incubated for 7 days by resazurin dye based two-dimensional micro dilution checkerboard assay in presence of isoniazid", "conditions": "time 7 day"}, "[12]": {"system": "Mycobacterium tuberculosis", "experiment": "Antimycobacterial activity against pre-extensively drug resistant Mycobacterium tuberculosis 1576 assessed as fractional inhibitory concentration index incubated for 7 days by resazurin dye based two-dimensional micro dilution checkerboard assay in presence of rifampicin", "conditions": "time 7 day"}, "[13]": {"system": "Mycobacterium tuberculosis", "experiment": "Antimycobacterial activity against pre-extensively drug resistant Mycobacterium tuberculosis 1576 incubated for 7 days by resazurin dye based two-dimensional micro dilution checkerboard assay in presence of 1-((3,4,5-trimethoxybenzyl)oxy)heptadecan-2-amine", "conditions": "time 7 day"}, "[14]": {"system": "Mycobacterium tuberculosis", "experiment": "Antimycobacterial activity against pre-extensively drug resistant Mycobacterium tuberculosis 1576 incubated for 7 days by resazurin dye based two-dimensional micro dilution checkerboard assay in presence of 1-(benzyloxy)heptadecan-2-amine", "conditions": "time 7 day"}, "[15]": {"system": "Mycobacterium tuberculosis", "experiment": "Antimycobacterial activity against pre-extensively drug resistant Mycobacterium tuberculosis 1576 incubated for 7 days by resazurin dye based two-dimensional micro dilution checkerboard assay in presence of 2-aminoheptadecan-1-ol", "conditions": "time 7 day"}}, "note": "Several values for one entry are separate records, joined by “and”; a condition that tells them apart may be missing. Identical values can stand only once."}
{"smiles": "CCCCCCCCCCCCCCCCCCCC(CNCC)NC(=O)OC(C)(C)C", "note": "(stereo unspecified)", "values": [{"measurement": "MIC", "setting": "[1]", "result": 4, "unit": "µM"}]}
{"smiles": "CCCCCCCCCCCCCCCCCC(CO)NCC", "note": "(stereo unspecified)", "values": [{"measurement": "MIC", "setting": "[1]", "result": 16, "unit": "µM"}]}
{"smiles": "CCCCCCCCCCCCCCCC(COCc1ccccc1)NCCCCCC", "note": "(stereo unspecified)", "values": [{"measurement": "MIC", "setting": "[1]", "result": 64, "unit": "µM"}]}
{"smiles": "CCCCCCCCCCCCCCCCCC(CO)NCCCC", "note": "(stereo unspecified)", "values": [{"measurement": "MIC", "setting": "[1]", "result": 32, "unit": "µM"}]}
{"smiles": "CCCCCCCCCCCCCCCC(N)CNCC", "note": "(stereo unspecified)", "values": [{"measurement": "MIC", "setting": "[1]", "result": 16, "unit": "µM"}]}
{"smiles": "CCCCCCCCCCCCCCCC(CN=[N+]=[N-])NC(=O)OC(C)(C)C", "note": "(stereo unspecified)", "values": [{"measurement": "MIC", "setting": "[1]", "result": 16, "unit": "µM"}]}
{"smiles": "CCCCCCCCCCCCCCCC(CO)NCCCCCC", "note": "(stereo unspecified)", "values": [{"measurement": "MIC", "setting": "[1]", "result": 64, "unit": "µM"}]}
{"smiles": "CCCCCCCCCCCCCCCCCCCC(CN)NC(=O)OC(C)(C)C", "note": "(stereo unspecified)", "values": [{"measurement": "MIC", "setting": "[1]", "result": 64, "unit": "µM"}]}
{"smiles": "CCCCCCCCCCCCCCCC(N)CO", "note": "(stereo unspecified)", "values": [{"measurement": "fractional inhibitory concentration index (FICI)", "setting": "[2]", "result": 0.53}, {"measurement": "FIC", "setting": "[3]", "result": 0.5}, {"measurement": "FIC", "setting": "[4]", "result": 0.5}, {"measurement": "FIC", "setting": "[5]", "result": 0.5}, {"measurement": "FIC", "setting": "[6]", "result": 0.5}, {"measurement": "FIC", "setting": "[7]", "result": 0.5}, {"measurement": "fractional inhibitory concentration index (FICI)", "setting": "[8]", "result": 1}, {"measurement": "fractional inhibitory concentration index (FICI)", "setting": "[9]", "result": 0.75}, {"measurement": "fractional inhibitory concentration index (FICI)", "setting": "[10]", "result": 0.75}, {"measurement": "MIC", "setting": "[1]", "result": 3.03, "unit": "µM"}, {"measurement": "fractional inhibitory concentration index (FICI)", "setting": "[11]", "result": 0.63}, {"measurement": "fractional inhibitory concentration index (FICI)", "setting": "[12]", "result": 0.53}]}
{"smiles": "CCCCCCCCCCCCCCCCCCCC(N)COCc1ccccc1", "note": "(stereo unspecified)", "values": [{"measurement": "MIC", "setting": "[1]", "result": 32, "unit": "µM"}]}
{"smiles": "CCCCc1ccc(CCCCCCCC(N)CO)cc1", "note": "(stereo unspecified)", "values": [{"measurement": "MIC", "setting": "[1]", "result": 2, "unit": "µM"}]}
{"smiles": "CCCCCCCCCCCCCCCC(CN)NC(=O)OC(C)(C)C", "note": "(stereo unspecified)", "values": [{"measurement": "MIC", "setting": "[1]", "result": 17.6, "unit": "µM"}]}
{"smiles": "CCCCc1ccc(CCCCCCCC(CO)NC(=O)OC(C)(C)C)cc1", "note": "(stereo unspecified)", "values": [{"measurement": "MIC", "setting": "[1]", "result": 16, "unit": "µM"}]}
{"smiles": "CCCCCCCCCCCC(CO)N(CC)CC", "note": "(stereo unspecified)", "values": [{"measurement": "MIC", "setting": "[1]", "result": 32, "unit": "µM"}]}
{"smiles": "CCCCc1ccc(CCCCCC(CO)NC(=O)OC(C)(C)C)cc1", "note": "(stereo unspecified)", "values": [{"measurement": "MIC", "setting": "[1]", "result": 16, "unit": "µM"}]}
{"smiles": "CCCCCCCCCCCCCCCCCC(CO)N(CC)CC", "note": "(stereo unspecified)", "values": [{"measurement": "MIC", "setting": "[1]", "result": "> 64", "unit": "µM"}]}
{"smiles": "CCCCCCCCCCCCCCCC(CNCC(=O)OCC)NC(=O)OC(C)(C)C", "note": "(stereo unspecified)", "values": [{"measurement": "MIC", "setting": "[1]", "result": 32, "unit": "µM"}]}
{"smiles": "CCCCCCCCCCCCCCCC(CNCC)NC(=O)OC(C)(C)C", "note": "(stereo unspecified)", "values": [{"measurement": "MIC", "setting": "[1]", "result": 16, "unit": "µM"}]}
{"smiles": "CCCCc1ccc(CCCCCC(N)CO)cc1", "note": "(stereo unspecified)", "values": [{"measurement": "MIC", "setting": "[1]", "result": 64, "unit": "µM"}]}
{"smiles": "NCC[C@H](O)C(=O)N[C@@H]1C[C@H](N)[C@@H](O[C@H]2O[C@H](CN)[C@@H](O)[C@H](O)[C@H]2O)[C@H](O)[C@H]1O[C@H]1O[C@H](CO)[C@@H](O)[C@H](N)[C@H]1O", "note": "[AMIKACIN]", "values": [{"measurement": "FIC", "setting": "[13]", "result": 0.25}, {"measurement": "FIC", "setting": "[14]", "result": 0.125}, {"measurement": "FIC", "setting": "[15]", "result": 0.25}, {"measurement": "MIC", "setting": "[1]", "result": "0.8 µM and 0.63 µg/mL"}]}
{"smiles": "CO[C@H]1/C=C/O[C@@]2(C)Oc3c(C)c(O)c4c(O)c(c(/C=N/N5CCN(C)CC5)c(O)c4c3C2=O)NC(=O)/C(C)=C\\C=C\\[C@H](C)[C@H](O)[C@@H](C)[C@@H](O)[C@@H](C)[C@H](OC(C)=O)[C@@H]1C", "note": "[RIFAMPIN]", "values": [{"measurement": "FIC", "setting": "[13]", "result": 0.25}, {"measurement": "FIC", "setting": "[14]", "result": 0.063}, {"measurement": "FIC", "setting": "[15]", "result": 0.031}, {"measurement": "MIC", "setting": "[1]", "result": "78 µM and 64 µg/mL"}]}
{"smiles": "CCCCCCCCCCCC(N)CO", "note": "(stereo unspecified)", "values": [{"measurement": "MIC", "setting": "[1]", "result": 32, "unit": "µM"}]}
{"smiles": "CCCCCCCCCCCCCCCC(CNCCCC)NC(=O)OC(C)(C)C", "note": "(stereo unspecified)", "values": [{"measurement": "MIC", "setting": "[1]", "result": 8, "unit": "µM"}]}
{"smiles": "CCCCCCCCCCCCCCCCCCCC(CO)N(CC)CC", "note": "(stereo unspecified)", "values": [{"measurement": "MIC", "setting": "[1]", "result": "> 64", "unit": "µM"}]}
